Experimental data from article PMC11371739, “Ginkgolic Acid as a carbapenem synergist against KPC-2 positive Klebsiella pneumoniae” (Frontiers in Microbiology, 2024).

Biological target: T1, KPC-2 (Klebsiella pneumoniae carbapenemase-2) (Klebsiella pneumoniae, UniProt Q9F663)
T1 construct: purified KPC-2 expressed in E. coli BL21(DE3) (pET28a-KPC-2)
Assay: nitrocefin hydrolysis inhibition assay with purified KPC-2; supported by CD, FTIR and site-directed mutagenesis
Format: biochemical

T1 sequence (Q9F663 25-293 limits assumed): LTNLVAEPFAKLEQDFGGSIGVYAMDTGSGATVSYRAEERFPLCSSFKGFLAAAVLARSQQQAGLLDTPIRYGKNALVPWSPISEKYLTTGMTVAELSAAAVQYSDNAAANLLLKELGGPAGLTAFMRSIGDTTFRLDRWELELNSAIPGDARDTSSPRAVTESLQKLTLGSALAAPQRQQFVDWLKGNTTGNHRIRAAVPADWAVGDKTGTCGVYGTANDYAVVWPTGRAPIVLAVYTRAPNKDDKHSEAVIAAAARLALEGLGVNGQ

Compound: CCCCCCCCCCCCCc1cccc(O)c1C(=O)O [GA, Ginkgolic Acid (C13:0)]
- IC50: 14.8 µM
